Results published in article PMC6270892, “Penostatin Derivatives, a Novel Kind of Protein Phosphatase 1B Inhibitors Isolated from Solid Cultures of the Entomogenous Fungus Isaria tenuipes” (Molecules, 2014).
Where two headings read alike, the source gives them in different places.

How the values were obtained:
LAR = LAR (Homo sapiens, UniProt P10586); assay: LAR phosphatase inhibition assay; format: biochemical
Method: PTP1B activity was measured as the rate of hydrolysis of p-nitrophenyl phosphate (pNPP) in a 96-well microtiter plate format. Standard assays were conducted at room temperature in a total volume of 0.2 mL that contained HEPES buffer (50 mM, pH 7.2), NaCl (50 mM), EDTA (1 mM), DTT (1 mM), bovine serum albumin (1 mg/mL), pNPP (at various concentrations, Km) 1.4 (0.03 mM), and PTP1B (35 ng/mL). Sodium orthovanadate was used as the positive control. Inhibitors were added in DMSO at 100 times the final concentration. PTP1B activity was measured as the rate of inorganic phosphate released upon hydrolysis of the IR phosphopeptide, TRDIpYETDpYpYRK, using a Malachite Green method. The enzyme activity was estimated by measuring the absorbance at 405 nm with appropriate corrections. Each experiment was performed either in triplicate, and IC50 data were derived from three independent experiments.
Activities of LAR were measured as described above except that the HEPES buffer (50 mM) was at pH 6.8, and the enzyme was added at a concentration of 10 μg/mL. Activity of calcineurin (from Sigma Chemical Co.) was assayed using 4-methylumbelliferyl phosphate (0.8 mM) as a substrate in an assay mixture that contained Tris-HCl buffer (40 mM, pH 8.6), NaCl (100 mM), CaCl2 (0.5 mM), DTT (0.5 mM), bovine serum albumin (0.1 mg/mL), calmodulin (50 nM), and calcineurin (25 nM). Sodium orthovanadate was used as the positive control. Fluorescence at 450 nm was monitored with excitation at 400 nm. The color was allowed to develop at room temperature for 30 min, and the sample absorbances were determined at 650 nm using a plate reader (Molecular Devices, Sunnyvale, CA, USA). Each experiment was performed either in triplicate, and IC50 data were derived from three independent experiments.
(§1) Calculations. PTPase activities, based on a potassium phosphate standard curve, were expressed as nanomoles of phosphate released/min/mg protein. Inhibition of recombinant h-PTP1B by test compounds was calculated as percent of phosphatase control. A four-parameter nonlinear logistic regression of PTPase activities using SAS release 6.08, PROC NLIN, was used for determining IC50 values of the test compounds. The reported IC50 values show significant fit to the regression curve (p < 0.05).

PTP1B [1] = target: T1, PTP1B (Homo sapiens, UniProt P18031); assay: PTP1B inhibition assay (pNPP hydrolysis / Malachite Green); format: biochemical; conditions: for selectivity between PTP1B and LAR: PTP1B versus LAR, in words; for IC50: mean ± SD of three replicates
T1 sequence (P18031 1-435): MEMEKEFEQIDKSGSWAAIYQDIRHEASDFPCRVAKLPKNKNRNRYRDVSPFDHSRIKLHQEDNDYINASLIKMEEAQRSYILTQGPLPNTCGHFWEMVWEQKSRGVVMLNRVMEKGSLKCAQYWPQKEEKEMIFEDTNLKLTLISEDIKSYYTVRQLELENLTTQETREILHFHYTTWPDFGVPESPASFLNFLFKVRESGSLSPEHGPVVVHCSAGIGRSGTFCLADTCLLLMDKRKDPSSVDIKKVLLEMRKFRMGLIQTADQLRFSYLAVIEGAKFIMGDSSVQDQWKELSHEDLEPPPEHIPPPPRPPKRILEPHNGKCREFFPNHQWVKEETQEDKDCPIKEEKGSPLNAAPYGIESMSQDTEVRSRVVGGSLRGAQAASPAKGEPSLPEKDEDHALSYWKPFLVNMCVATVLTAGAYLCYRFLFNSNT
Method: PTP1B activity was measured as the rate of hydrolysis of p-nitrophenyl phosphate (pNPP) in a 96-well microtiter plate format. […] Inhibitors were added in DMSO at 100 times the final concentration. PTP1B activity was measured as the rate of inorganic phosphate released upon hydrolysis of the IR phosphopeptide, TRDIpYETDpYpYRK, using a Malachite Green method. The enzyme activity was estimated by measuring the absorbance at 405 nm with appropriate corrections. Each experiment was performed either in triplicate, and IC50 data were derived from three independent experiments.
as §1, with “compounds.” for “compounds. The reported IC50 values show significant fit to the regression curve (p < 0.05).”

PTP1B [2] = test system: PTP1B; parameters: method as in PMID 20337577; conditions: cited from earlier work
[3] = tested at 50 μg/mL, read-out: LAR inhibition

Sequence of LAR (P10586 30-1907, species assumed): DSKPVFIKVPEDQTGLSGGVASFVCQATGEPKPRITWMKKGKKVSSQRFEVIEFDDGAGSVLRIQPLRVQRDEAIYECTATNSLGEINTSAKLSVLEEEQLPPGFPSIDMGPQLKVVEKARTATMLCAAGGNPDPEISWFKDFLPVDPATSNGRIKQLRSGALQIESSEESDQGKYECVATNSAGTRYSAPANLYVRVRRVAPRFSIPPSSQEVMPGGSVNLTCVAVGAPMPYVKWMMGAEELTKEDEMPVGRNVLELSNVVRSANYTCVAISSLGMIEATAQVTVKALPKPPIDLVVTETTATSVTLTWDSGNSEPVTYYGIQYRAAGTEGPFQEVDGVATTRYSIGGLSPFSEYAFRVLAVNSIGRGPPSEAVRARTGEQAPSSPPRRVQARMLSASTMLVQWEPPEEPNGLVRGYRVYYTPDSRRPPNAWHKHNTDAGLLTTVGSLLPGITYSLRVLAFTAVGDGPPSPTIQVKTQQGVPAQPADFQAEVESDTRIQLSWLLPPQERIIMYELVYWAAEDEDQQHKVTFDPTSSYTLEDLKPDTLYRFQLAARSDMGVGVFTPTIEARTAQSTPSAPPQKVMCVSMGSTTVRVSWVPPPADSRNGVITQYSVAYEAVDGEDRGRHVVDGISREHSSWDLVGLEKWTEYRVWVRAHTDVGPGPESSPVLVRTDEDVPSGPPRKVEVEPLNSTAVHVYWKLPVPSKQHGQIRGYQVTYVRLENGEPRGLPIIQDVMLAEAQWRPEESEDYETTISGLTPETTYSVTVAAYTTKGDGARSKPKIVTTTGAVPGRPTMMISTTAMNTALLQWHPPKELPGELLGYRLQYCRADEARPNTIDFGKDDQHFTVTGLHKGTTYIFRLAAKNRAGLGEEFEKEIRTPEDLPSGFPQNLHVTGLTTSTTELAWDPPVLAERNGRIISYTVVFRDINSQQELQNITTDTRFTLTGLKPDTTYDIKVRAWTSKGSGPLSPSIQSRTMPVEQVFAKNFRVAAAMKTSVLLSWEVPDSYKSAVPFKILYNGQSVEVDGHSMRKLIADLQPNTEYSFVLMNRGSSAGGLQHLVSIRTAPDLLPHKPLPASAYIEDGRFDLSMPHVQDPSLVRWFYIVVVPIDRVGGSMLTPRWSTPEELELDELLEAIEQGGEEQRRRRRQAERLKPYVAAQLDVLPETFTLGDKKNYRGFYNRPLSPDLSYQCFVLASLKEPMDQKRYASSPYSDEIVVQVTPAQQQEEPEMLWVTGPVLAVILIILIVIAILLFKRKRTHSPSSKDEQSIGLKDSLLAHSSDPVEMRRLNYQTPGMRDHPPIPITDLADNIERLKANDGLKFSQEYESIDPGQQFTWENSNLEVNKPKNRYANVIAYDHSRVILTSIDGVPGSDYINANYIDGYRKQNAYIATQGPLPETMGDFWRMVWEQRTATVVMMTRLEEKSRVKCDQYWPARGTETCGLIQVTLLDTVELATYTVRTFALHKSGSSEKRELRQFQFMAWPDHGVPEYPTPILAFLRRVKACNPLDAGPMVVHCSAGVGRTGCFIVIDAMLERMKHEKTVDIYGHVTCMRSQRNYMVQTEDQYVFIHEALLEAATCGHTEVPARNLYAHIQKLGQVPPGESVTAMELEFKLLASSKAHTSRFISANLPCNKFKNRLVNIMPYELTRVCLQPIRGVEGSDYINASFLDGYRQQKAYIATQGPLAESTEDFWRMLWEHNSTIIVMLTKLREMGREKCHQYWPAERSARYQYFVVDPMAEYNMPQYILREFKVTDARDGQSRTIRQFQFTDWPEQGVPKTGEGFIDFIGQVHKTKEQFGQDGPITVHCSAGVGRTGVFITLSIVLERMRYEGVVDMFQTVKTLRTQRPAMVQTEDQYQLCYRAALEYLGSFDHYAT

SMILES	IC50 (LAR; [3])	selectivity between PTP1B and LAR (PTP1B [1])	IC50 (PTP1B [1])	IC50 (LAR; mean ± SD of three replicates, read-out: IC50 (μM) LAR)	IC50 (PTP1B [2])
CCCCCCC/C=C/[C@@H]1O[C@@]2(O)C(=O)C=C3C=CC[C@H]3[C@@H]2C=C1C [Compound 1, penostatin J]	> 146 µM	significant selectivity	12.5 ± 0.9 µM		
CCCCCCC/C=C/[C@@H]1O[C@H]2C(=O)C=C3C=CC[C@H]3[C@@H]2C=C1C [Compound 2, penostatin C]		significant selectivity	0.37 ± 0.05 µM	53.3 ± 4.06 µM	
CCCCCCC/C=C/[C@@H]1O[C@H]2C(=O)C=C3C[C@H](O)C[C@H]3[C@@H]2C=C1C [Compound 3, penostatin A]	> 145 µM		15.9 ± 2.49 µM		
CCCCCCC/C=C/[C@@H]1O[C@H]2C(=O)C=C3C[C@@H](O)C[C@H]3[C@@H]2C=C1C [Compound 4, penostatin B]	> 145 µM		33.7 ± 7.33 µM		
Cc1cc(-c2c3ccccc3c(Br)c3sc(C)c(C)c23)cc(C)c1O[C@H](Cc1ccccc1)C(=O)O [ertiprotafib]					1.6 µM
